Experimental data: the supplement of paper PMC10883282

Key:
Assay in all cases: relative viability vs DMSO control (72 h) (fraction); higher = more viable cells
HS729 = tested on: HS729
Method in brief: (§1)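 Relative viability was measured with ATPLite and expressed as percent growth, averaged across up to triplicate wells. Sarcoma cell lines had been seeded in 384-well plates to reach 80–90% confluence, dosed after 24 h, and incubated 72 h at 37 °C, 5% CO2. All data were rescaled on a scale where 1 is full and 0 is none.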

SW872 = tested on: SW872
Method in brief: as §1

A204 = tested on: A204
Method in brief: as §1

SW684 = tested on: SW684
Method in brief: as §1

KHOS-NP = tested on: KHOS-NP
Method in brief: as §1

CN(C)C/C=C/C(=O)Nc1cc2c(Nc3ccc(F)c(Cl)c3)ncnc2cc1O[C@H]1CCOC1 [Afatinib]
relative viability
Conditions | A204 | HS729 | KHOS-NP | SW684 | SW872
0.00017 µM | 0.993 | 1.07 | 1.09 | 1.18 | 1.07
0.00051 µM | 1 | 0.975 | 1.08 | 1.18 | 1.14
0.00152 µM | 1.03 | 0.989 | 1.07 | 1.23 | 1.09
0.00457 µM | 0.976 | 0.953 | 1.07 | 1.18 | 1.11
0.01372 µM | 1.01 | 0.958 | 1.07 | 1.14 | 1.07
0.04115 µM | 0.945 | 0.968 | 1.07 | 1.13 | 1.06
0.1235 µM | 0.859 | 0.937 | 1.06 | 1.1 | 1.02
0.3704 µM | 0.595 | 0.802 | 1.08 | 1.04 | 0.896
1.111 µM | 0.34 | 0.667 | 1.02 | 0.816 | 0.595
3.333 µM | 0.175 | 0.529 | 0.967 | 0.527 | 0.304
10 µM | 0.00583 | 0.007367 | 0.0212 | 0.203 | 0.257

COc1cc(Nc2ncc3c(n2)-c2ccc(Cl)cc2C(c2c(F)cccc2OC)=NC3)ccc1C(=O)O [Alisertib]
relative viability
Conditions | A204 | HS729 | KHOS-NP | SW684 | SW872
0.00017 µM | 1.07 | 0.938 | 1.08 | 1.16 | 1.02
0.00051 µM | 1.073 | 0.943 | 1.1 | 1.17 | 0.974
0.00152 µM | 1.07 | 0.932 | 1.09 | 1.18 | 0.989
0.00457 µM | 1.03 | 0.888 | 1.08 | 1.15 | 1.03
0.01372 µM | 1.07 | 0.859 | 1.09 | 1.1 | 1.01
0.04115 µM | 1.06 | 0.879 | 1.07 | 1.09 | 1.01
0.1235 µM | 0.882 | 0.793 | 1.06 | 1.01 | 0.959
0.3704 µM | 0.796 | 0.77 | 1.05 | 1.01 | 0.731
1.111 µM | 0.768 | 0.733 | 0.951 | 0.983 | 0.759
3.333 µM | 0.7276 | 0.689 | 0.925 | 0.919 | 0.738
10 µM | 0.711 | 0.716 | 0.672 | 0.869 | 0.661

CCS(=O)(=O)N1CC(CC#N)(n2cc(-c3ncnc4[nH]ccc34)cn2)C1 [Baricitinib]
relative viability
Conditions | A204 | HS729 | KHOS-NP | SW684 | SW872
0.00017 µM | 1.06 | 0.937 | 1.04 | 1.06 | 1.014
0.00051 µM | 1.04 | 0.97 | 1.04 | 1.04 | 1.01
0.00152 µM | 1.05 | 0.999 | 1.052 | 1.12 | 1.03
0.00457 µM | 1.05 | 0.996 | 1.06 | 1.09 | 1.03
0.01372 µM | 1.03 | 1 | 1.04 | 1.13 | 1.05
0.04115 µM | 1.04 | 0.959 | 1.04 | 1.07 | 1.04
0.1235 µM | 1.02 | 0.94 | 1.06 | 1.09 | 1.03
0.3704 µM | 1.01 | 0.9518 | 1.02 | 1.03 | 1.03
1.111 µM | 0.971 | 0.926 | 1.03 | 1.07 | 1.05
3.333 µM | 0.934 | 0.9194 | 0.985 | 1.05 | 1.01
10 µM | 0.83 | 0.87 | 0.906 | 0.915 | 0.877

COc1cc(N2CCC(N3CCN(C)CC3)CC2)ccc1Nc1ncc(Cl)c(Nc2ccccc2P(C)(C)=O)n1 [Brigatinib]
relative viability
Conditions | A204 | HS729 | KHOS-NP | SW684 | SW872
0.00017 µM | 1.06 | 0.91 | 1.04 | 1.04 | 0.989
0.00051 µM | 1.08 | 0.925 | 1.06 | 1.05 | 0.969
0.00152 µM | 1.03 | 0.933 | 1.05 | 1.05 | 0.967
0.00457 µM | 1.06 | 0.909 | 1.02 | 0.992 | 0.94
0.01372 µM | 1.04 | 0.858 | 1.03 | 1.06 | 0.926
0.04115 µM | 1.03 | 0.771 | 1.03 | 1.06 | 0.885
0.1235 µM | 1.06 | 0.685 | 0.994 | 1.04 | 0.818
0.3704 µM | 0.991 | 0.595 | 0.985 | 1.02 | 0.626
1.111 µM | 0.692 | 0.417 | 0.852 | 0.921 | 0.469
3.333 µM | 0.262 | 0.199 | 0.534 | 0.573 | 0.321
10 µM | 0.0135 | 0.0341 | 0.21 | 0.2498 | 0.288

Cc1cc2c(F)c(Oc3ncnn4cc(OC[C@@H](C)OC(=O)[C@H](C)N)c(C)c34)ccc2[nH]1 [Brivanib_alaninate]
relative viability
Conditions | A204 | HS729 | KHOS-NP | SW684 | SW872
0.00017 µM | 1.05 | 0.943 | 1.04 | 1.15 | 0.98
0.00051 µM | 1.05 | 0.893 | 1.05 | 1.15 | 0.967
0.00152 µM | 1.07 | 0.914 | 1.05 | 1.17 | 0.991
0.00457 µM | 1.11 | 0.878 | 1.06 | 1.14 | 0.988
0.01372 µM | 1.08 | 0.9 | 1.059 | 1.08 | 0.968
0.04115 µM | 1.04 | 0.897 | 1.07 | 1.07 | 0.973
0.1235 µM | 1.03 | 0.877 | 1.03 | 1.09 | 0.986
0.3704 µM | 1.05 | 0.898 | 1.03 | 1.17 | 1.02
1.111 µM | 0.999 | 0.923 | 1.02 | 1.141 | 1.04
3.333 µM | 0.958 | 0.891 | 0.917 | 1.13 | 1.05
10 µM | 0.567 | 0.782 | 0.6654 | 1.19 | 1.03

O=C(c1ccc(F)c(F)c1Nc1ccc(I)cc1F)N1CC(O)([C@@H]2CCCCN2)C1 [Cobimetinib]
relative viability
Conditions | A204 | HS729 | KHOS-NP | SW684 | SW872
0.00017 µM | 1.1 | 0.9644 | 1.09 | 1.23 | 1.06
0.00051 µM | 1.11 | 1 | 1.097 | 1.15 | 1.01
0.00152 µM | 1.12 | 0.97 | 1.085 | 1.17 | 0.923
0.00457 µM | 1.11 | 0.962 | 1.081 | 1.2 | 0.775
0.01372 µM | 1.079 | 0.915 | 1.08 | 1.13 | 0.67
0.04115 µM | 1.04 | 0.922 | 0.912 | 1.063 | 0.622
0.1235 µM | 1.01 | 0.876 | 0.438 | 0.941 | 0.606
0.3704 µM | 0.807 | 0.852 | 0.319 | 0.738 | 0.574
1.111 µM | 0.616 | 0.763 | 0.275 | 0.536 | 0.498
3.333 µM | 0.424 | 0.6553 | 0.28 | 0.357 | 0.39
10 µM | 0.0102 | 0.241 | 0.187 | -0.00433 | 0.00283

Cc1c2oc3c(C)ccc(C(=O)N[C@@H]4C(=O)N[C@H](C(C)C)C(=O)N5CCC[C@H]5C(=O)N(C)CC(=O)N(C)[C@@H](C(C)C)C(=O)O[C@@H]4C)c3nc-2c(C(=O)N[C@@H]2C(=O)N[C@H](C(C)C)C(=O)N3CCC[C@H]3C(=O)N(C)CC(=O)N(C)[C@@H](C(C)C)C(=O)O[C@@H]2C)c(N)c1=O [Dactinomycin]
relative viability
Conditions | A204 | HS729 | KHOS-NP | SW684 | SW872
0.00017 µM | 1.02 | 0.912 | 1.06 | 1.13 | 0.96
0.00051 µM | 0.99 | 0.937 | 1.07 | 1.16 | 0.975
0.00152 µM | 0.641 | 0.884 | 1.08 | 1.09 | 0.992
0.00457 µM | 0.393 | 0.8961 | 1.04 | 0.992 | 0.943
0.01372 µM | 0.277 | 0.711 | 0.63 | 0.835 | 0.765
0.04115 µM | 0.234 | 0.128 | 0.24 | 0.687 | 0.442
0.1235 µM | 0.193 | 0.166 | 0.0945 | 0.763 | 0.171
0.3704 µM | 0.201 | 0.119 | 0.0744 | 0.775 | 0.218
1.111 µM | 0.169 | 0.108 | 0.0665 | 0.795 | 0.189
3.333 µM | 0.161 | 0.113 | 0.0513 | 0.816 | 0.187
10 µM | 0.168 | 0.132 | 0.0582 | 0.766 | 0.199

C[C@@H]1CN(C(=O)c2ccc(NC(=O)c3cc(O[C@H](C)c4c(Cl)ccc(F)c4Cl)c(N)nn3)cc2)C[C@H](C)N1 [Ensartinib]
relative viability
Conditions | A204 | HS729 | KHOS-NP | SW684 | SW872
0.00017 µM | 1.069 | 0.96 | 1.02 | 1.05 | 1.02
0.00051 µM | 1.07 | 1.02 | 1.04 | 1.02 | 1.03
0.00152 µM | 1.06 | 1.03 | 1.03 | 1.08 | 1.04
0.00457 µM | 1.05 | 1.01 | 1.03 | 1.06 | 1.05
0.01372 µM | 1.05 | 0.998 | 1.04 | 1.06 | 1.06
0.04115 µM | 1.05 | 0.986 | 1.03 | 1.07 | 1.04
0.1235 µM | 1.04 | 0.955 | 1.03 | 1.06 | 1.03
0.3704 µM | 1.06 | 0.888 | 1.03 | 1.05 | 1.01
1.111 µM | 0.98 | 0.764 | 1.02 | 0.971 | 0.835
3.333 µM | 0.806 | 0.594 | 0.987 | 0.829 | 0.583
10 µM | 0.326 | 0.207 | 0.422 | 0.113 | 0.188

C=CC(=O)N1CCC(CNc2ncnc(N)c2-c2ccc(Oc3ccccc3)cc2)CC1 [Evobrutinib]
relative viability
Conditions | A204 | HS729 | KHOS-NP | SW684 | SW872
0.00017 µM | 1.1 | 1.08 | 1.11 | 1.15 | 1.05
0.00051 µM | 1.16 | 1.09 | 1.13 | 1.19 | 1.056
0.00152 µM | 1.16 | 1.04 | 1.13 | 1.2 | 1.04
0.00457 µM | 1.11 | 1.07 | 1.13 | 1.22 | 1.04
0.01372 µM | 1.02 | 1.03 | 1.12 | 1.2 | 1.03
0.04115 µM | 1.05 | 0.991 | 1.128 | 1.16 | 1.03
0.1235 µM | 1.07 | 1.01 | 1.12 | 1.22 | 1.07
0.3704 µM | 1.04 | 1.01 | 1.12 | 1.18 | 1.04
1.111 µM | 1.07 | 0.978 | 1.12 | 1.19 | 1.02
3.333 µM | 1.02 | 0.938 | 1.12 | 1.19 | 1.03
10 µM | 0.871 | 0.862 | 1.12 | 1.174 | 1.01
